{"source": "paper PMC5554167", "about": "“Intestinal transepithelial permeability of oxytocin into the blood is dependent on the receptor for advanced glycation end products in mice” (Scientific Reports, 2017)", "key": {"[1]": {"experiment": "Plasma AVP after oral delivery of AVP in pups (EIA)", "type": "in vivo, mice", "details": "for AVP recovery: rough estimate", "description": "To study the specificity of RAGE-dependent transport of OT, we investigated the intestinal absorption of another nonapeptide, arginine vasopressin (AVP[46]) by oral delivery and in the isolated intestines. Transport during the suckling period of development (PND3 and PND5) was confirmed by comparing plasma AVP levels at 10 min after oral delivery of 10 μL of synthetic AVP solution (100 μM; 1 μg/pup) or the same volume of PBS to pups after fasting for 30 min. Plasma AVP concentrations were markedly higher at both PND3 and PND5 in pups administered AVP than in those administered oral saline (Fig. 6a). Two-way ANOVA was used to analyse the interaction between Treatment (PBS/AVP) × Age, F 1,18 = 3.14, P = 0.0933; the Treatment (PBS/AVP) effect, F 1,18 = 5.21, P < 0.05; and the Age effect, F 1,18 = 91.26, P < 0.0001. Bonferroni’s post hoc tests were used to determine differences in AVP levels between PND3 and PND5, *P < 0.05. It is worth noting that the pup size denominator problem was also present in the above experiment. However, if we roughly estimate AVP recovery, it is approximately 4% at PND3 (22 ng was recovered from the effective dose of 555 ng (1 μg/1.8 g pup)) and also 4% at PND5 (16 ng was recovered from the effective dose of 400 ng (1 μg/2.5 g pup)).\nApproximately 30 μL of blood was collected from the facial vein of neonates after quick cold anesthesia on ice (Fig. 1a; ref. [67], [68]). The similar blood volume was obtained from the heart after opening of the chest of pups (Figs 1b–d, 3a,b, 6a and 7), from the carotid artery in the pup neck (Fig. 2a) and the tail vein of adults each time (Fig. 6) under ketamine anaesthesia ([…] intraperitoneally).\nOT or AVP immunoreactivity levels were quantified by using OT and AVP enzyme immunoassay (EIA) kits (Enzo Life Sciences, NY, USA), respectively. We performed assays in tissue preparations without pre-treatment[66], [70] to compare different tissue samples, though the fractioned sample was recommended, [72]. Blood samples collected as mentioned above were stored at −80 C. The blood samples were thawed and five μL of them were diluted 1:20 in assay buffer on ice and assayed."}, "[2]": {"details": "adult humans, cited from earlier work", "description": "An estimation of bioavailability was performed in adult mice. Fifty ng/mL of OT was detected after oral delivery of 10 μg of OT. Young adults weigh approximately 30 g and have 2.3 mL blood, so approximately 1% of oral OT can be absorbed. We have previously identified OT in the mammary tissues of mouse dams and in the milk curd inside the oesophagi of pups[13]. To determine the OT concentrations in milk, we needed to collect milk from the mothers. One common method is to collect milk after stimulating secretion with external OT. Because such milk contains external OT, we were unable to calculat ..."}, "[3]": {"experiment": "LC-MS/MS of [Ile13C,15N]OT in plasma after oral administration to pups", "type": "in vivo, mice", "description": "Plasma samples were collected from the heart of anesthetized wild-type PND3 pups at 10 min after oral administration of [Ile ^13C, ^15N]OT (100 µM × 10 μL). The samples were fractionated with 1 N salt, and subjected to LC-MS/MS after sample preparation by the deproteination procedure. Figure 7 illustrates two representative traces of multiple reaction monitoring (MRM) chromatograms ([M + H^+] (m/z 1014.6) → b6 ion (m/z 730.6) for the administered [Ile ^13C, ^15N]OT; [M + H^+] (m/z 1021.2) → b6 ion (m/z 723.2) for the internal STD [Pro&Leu^13C, ^15N]OT)[47]. The left MRM chromatogram indicates the presence of full-length stably labelled [Ile ^13C, ^15N]OT in the blood owing to intestinal absorption after oral administration in suckling (PND3) pups (n = 4). The right MRM chromatogram of Fig. 7 corresponds to the internal STD [Pro&Leu^13C, ^15N]OT spiked into the plasma.\nStandard (STD) samples of [Ile^13C, ^15N]OT (100 ng/mL) and [Pro&Leu^13C, ^15N]OT (100 ng/mL) were prepared by dilution of stock solutions with 0.1% TFA as necessary. […]\nAn AB Sciex 4000 QTRAP (CA, USA) was used. The prepared 25 μL sample was injected and separated by a ZORBAX 300SB-C8 column (2.1 × 150 mm, 5 μm; CA, USA) and then detected using the multiple reaction monitoring (MRM) mode of the MS/MS system. […]"}}, "note": "Read-outs that look alike come from different tables or passages of the source."}
{"compound": "arginine vasopressin [AVP]", "values": [{"measurement": "AVP recovered", "setting": "[1]; wild-type pups PND3, 10 min after oral AVP 1 μg/pup, effective dose 555 ng", "result": 22, "unit": "ng"}, {"measurement": "AVP recovery", "setting": "[1]; wild-type pups PND3, 10 min after oral AVP 1 μg/pup, effective dose 555 ng (1 μg/1.8 g pup)", "result": "approximately 4%"}, {"measurement": "AVP recovered", "setting": "[1]; wild-type pups PND5, 10 min after oral AVP 1 μg/pup, effective dose 400 ng", "result": 16, "unit": "ng"}, {"measurement": "AVP recovery", "setting": "[1]; wild-type pups PND5, 10 min after oral AVP 1 μg/pup, effective dose 400 ng (1 μg/2.5 g pup)", "result": "approximately 4%"}]}
{"compound": "1-deamino-8-arginine vasopressin", "values": [{"measurement": "Bioavailability", "setting": "[2]; intranasal", "result": 3.4, "unit": "%"}, {"measurement": "Bioavailability", "setting": "[2]; intrarectal", "result": 0, "unit": "%"}, {"measurement": "Bioavailability", "setting": "[2]; oral", "result": 0.1, "unit": "%"}, {"measurement": "Bioavailability", "setting": "[2]; sublingual", "result": 0, "unit": "%"}]}
{"compound": "CC[C@H](C)[C@@H]1NC(=O)[C@H](Cc2ccc(O)cc2)NC(=O)[C@@H](N)CSSC[C@@H](C(=O)N2CCC[C@H]2C(=O)N[C@@H](CC(C)C)C(=O)NCC(N)=O)NC(=O)[C@H](CC(N)=O)NC(=O)[C@H](CCC(N)=O)NC1=O", "note": "[[Ile ^13C, ^15N]OT, isoleucine [Ile ^13C, ^15N] oxytocin]", "values": [{"measurement": "level at 10 min", "setting": "[3]; mouse, in vivo, 1000 ng, wild-type PND3 pups 10 min after oral 100 µM × 10 μL, LC-MS/MS, corrected for dilution x10, n = 4, read-out: Estimated mean concentration in the blood", "result": "346 ± 96", "unit": "ng/mL"}, {"measurement": "Concentration calculated from ratio of peak areas (10-fold diluted sample)", "setting": "[3]; wild-type PND3 pup plasma 10 min after oral 100 µM × 10 μL, LC-MS/MS MRM, sample of Fig. 7, before correction for dilution", "result": 27.9, "unit": "ng/mL"}]}
{"compound": "CC[C@H](C)[C@@H]1NC(=O)[C@H](Cc2ccc(O)cc2)NC(=O)[C@@H](N)CSSC[C@@H](C(=O)N2CCC[C@H]2C(=O)N[C@@H](CC(C)C)C(=O)NCC(N)=O)NC(=O)[C@H](CC(N)=O)NC(=O)[C@H](CCC(N)=O)NC1=O", "values": [{"measurement": "OT detected in plasma after oral delivery", "result": 50, "unit": "ng/mL"}]}
